Assay results reported in patent US7371812B2, “Antiangiogenic peptides” (Children's Medical Center Corporation, priority 2003, dated 2008).

Assays:
[1] = system: activated type I collagenase; assay: 14C-Collagen Film Assay of MMP-inhibitory activity; type: biochemical; conditions: T2C and EAT2N up to approximately 100-fold the IC50 of T2N
Method: MMP-inhibitory activity was assessed using a quantitative ^14C-Collagen Film Assay, as previously described by us (Moses et al., 1990). Briefly, ^14C-labeled collagen was added to 96 well plates and allowed to polymerize. To determine inhibitory activity, wells were treated with a known amount of activated type I collagenase plus test sample or with collagenase alone, and the plates incubated at 37° C. for 2.5 hours to allow for release of ^14C by the enzyme. Supernantants were then analyzed in a Wallac Scintillation Counter, and percent inhibition of collagenolytic activity was calculated. An IC50 was defined as the amount of protein necessary to inhibit the proteolytic activity of collagenase by 50%.

[2] = system: Capillary endothelial cells (EC), isolated from bovine adrenal cortex; assay: bFGF-stimulated capillary EC proliferation assay; type: cell-based
Method: Capillary endothelial cells (EC), isolated from bovine adrenal cortex, were a kind gift of Dr. Judah Folkman (Children's Hospital, Boston) and were maintained in DMEM (Gibco) supplemented with 10% calf serum (HyClone) and 3 ng/ml bFGF, and grown at 37° C. in 10% CO2. Capillary EC proliferation was measured as previously reported by us (Moses et al., 1990; Moses et al., 1992; O'Reilly et al., 1994; Moses et al., 1999) using a modification of the method of Connolly and coworkers (and verified by cell counting using a Coulter Counter) (Connolly et al., 1986). Briefly, capillary EC were plated on pre-gelatinized 96 well plates at a density of 2,000 cells per well in DMEM supplemented with 5% calf serum and allowed to attach for 24 hours. The next day, cells were treated with fresh media with or without 1 ng/ml bFGF and challenged with the test proteins at various concentrations. All samples were tested in duplicate. Control wells contained cell treated with media alone or media with bFGF. After 72 hours, the media was removed and the cells were lysed in buffer containing Triton X-100 and the phosphatase substrate p-nitrophenyl phosphate. After a two-hour incubation at 37° C., NaOH was added to each well to terminate the reaction and cell density was determined by calorimetric analysis using a SpectraMax 190 multiwell plate reader (Molecular Devices).

[3] = system: embryonic angiogenesis in the chick chorioallantoic membrane; assay: Chick chorioallantoic membrane assay (CAM); type: in vivo; conditions: methylcellulose disc, 48 hours
Method: The chick CAM assay was conducted as previously reported by us (Moses et al., 1990; Moses et al., 1992; O'Reilly et al., 1994; Moses et al., 1999; Fang et al., 2000) Briefly, three day old chick embryos were removed from their shells and incubated in plastic Petri dishes for three days. On embryonic day 6, samples and controls mixed into methylcellulose discs were applied to the surfaces of developing CAMs, above the dense subectodermal plexus. After 48 hours of incubation, the eggs were examined for vascular reactions under a dissecting scope (60×) and photographed. All determinations were made by 3 independent members of the laboratory, in a double-blinded fashion.

[4] = system: bFGF-driven corneal neovascularization; assay: Mouse corneal pocket assay; type: in vivo
Method: In vivo inhibition of angiogenesis was also tested using the mouse corneal pocket assay as previously described (O'Reilly et al., 1994; Moses et al., 1999). […] Each animal carried a pellet containing the test sample plus bFGF in one eye, and a control bFGF pellet in the contralateral eye. After six days, angiogenesis was evaluated using a slit lamp microscope, and each eye was photographed. The area of neovascularization for each cornea was calculated from the length of the vessels (VL) invading the cornea as well as the clock hours (CH) covered as described by the formula VL×CH×0.0628.

Capillary EC [5] = assay: Apoptosis assay (TUNEL, DAPI); type: cell-based, bovine; conditions: bFGF-stimulated, 6 hours; Loop 6 at IC50 dose, wortmannin 100 mM
Method: In situ detection of cell death was determined using terminal deoxynucleotidyl transferase dUTP nick-end labeling (TUNEL) following manufacturer's instructions (In Situ Cell Death Detection Kit, Roche Applied Science, Indianapolis, Ind.). Capillary EC were plated at a density of 10,000 cells per well on pre-gelatinized Lab-Tek Chamber Slides (Nalge Nunc, Naperville, Ill.) in DMEM supplemented with 5% calf serum and allowed to attach for 24 hours. The next day, cells were treated with fresh media supplemented with 1 ng/ml bFGF and challenged with an IC50 dose of Loop 6 or […] wortmannin, a dose previously reported to induce apoptosis of capillary E (Flusberg et al., 2001). Cells stimulated with bFGF alone were also used as controls. All samples were tested in duplicate. After 6 hours, the cells were rinsed with PBS and then fixed in 4% paraformaldehyde for 1 hour at room temperature. Fixed cells were again rinsed with PBS and permeabilised with 0.1% Triton X-100 in 0.1% sodium citrate on ice for 2 minutes. After two more rinses in PBS, the cells were exposed to TUNEL reaction mixture and incubated at 37° C. […] Apoptotic nuclei were detected using a Nikon Eclipse TE300 microscope (Nikon Instruments, Melville, N.Y.).

Capillary EC [6] = assay: Cell cycle analysis by flow cytometry; type: cell-based, bovine; conditions: synchronized, bFGF-stimulated, 16 hours; for cells in G1 / cells in G2/M: IC50 dose of Loop 6 or equivalent dose of T2-Tail
Method: Capillary EC were plated at a density of 100,000 cells per plate unto pre-gelatinized 60 mm dishes in DMEM supplemented with 5% calf serum and allowed to attach overnight. The next day, the media was replaced with DMEM supplemented with 0.4% calf serum in order to synchronize the cells by serum starvation. After 36 hours, synchronized cells were stimulated with DMEM containing 5% calf serum plus 1 ng/ml bFGF, and then treated with an IC50 dose of Loop 6 or an equivalent dose of the T2-Tail peptide as control. After 16 hours, the cells were rinsed with PBS, trypsinized and collected by centrifugation. Pelleted cells were rinsed again with PBS and resuspended in 1 ml of 80% ethanol in PBS, and stored at −20° C. overnight. The next morning, cells were collected by centrifugation and resuspended in 500 μl of staining solution (0.1% sodium citrate, 100 μg/ml RNAse A, 0.1% Nonidet-P40, 50 μg/ml propidium iodide). After 30 minutes, DNA content of the cells and the percentages of cells in the various stages of the cell cycle were determined using a FACSVantage SE (Becton Dickinson, Franklin Lanes, N.J.). FACS analysis was performed at the Howard Hughes Institute of Medicine FACS Core Facility at Children's Hospital. All samples were tested in at least duplicate. Histograms of representative experiments for each test condition were created using WinMDI 2.8 (The Scripps Research Institute, La Jolla, Calif.).

[7] = system: Cyclin D1, Cyclin E, Cyclin A and p27 in capillary EC lysates; assay: Immunoblot analyses of cell cycle associated proteins; type: cell-based, bovine; conditions: IC50 dose, 16 hours, versus bFGF-stimulated controls
Method: Western analyses of capillary EC lysates were performed as previously described by us (Moses et al., 1999; Yan et al., 2001). Capillary EC were plated, synchronized and treated with an IC50 dose of Loop 6 as described above for cell cycle analysis. After 16 hours, cells exposed to bFGF alone or bFGF and Loop 6 were rinsed in PBS and lysed directly in the culture dish by addition of 500 μl of lysis buffer (1% SDS in 10 mM Tris-Hcl, pH 7.4). Collected lysates were boiled for 5 minutes, mixed by vortexing and then placed on ice. Samples were repeatedly passed through a 22-gauge syringe needle in order to shear the DNA. The samples were then centrifuged, and the supernatant collected. Protein concentration of the lysates was determined using the MicroBCA method (Pierce, Rockford, Ill.). Equal amounts of protein were loaded unto 12% SDS-PAGE gels under reducing conditions, resolved by electrophoresis and subsequently transferred to nitrocellulose using a TransBlot apparatus (BioRad). […] Labeled proteins were detected using Supersignal West Pico Chemiluminescence Substrate (Pierce).

[8] = system: vascular smooth muscle cells; assay: Vascular smooth muscle cell proliferation (data not shown); type: cell-based
Capillary EC [9] = assay: FGF competition assay; type: cell-based, bovine; conditions: IC50 dose of Loop 6, increasing concentrations of bFGF
Text: To further map the anti-proliferative activity of TIMP-2 within T2C, three peptides corresponding to various smaller domains of T2C were synthesized, purified and tested for their ability to inhibit bFGF-stimulated capillary EC proliferation in vitro. These domains and are depicted in FIG. 6A. […] Given that Loop 6 inhibits bFGF-driven endothelial cell proliferation, we asked whether Loop 6 could directly compete with bFGF.

## Loop 6: 24 amino acid peptide corresponding to Loop 6 of TIMP-2, sequence ECLWMDWVTEKNINGHQAKFFACI (SEQ ID NO: 1)
[1]
  inhibition of MMP activity: neither T2C nor Loop 6 inhibit MMP activity
[2]; 1 ng/ml bFGF, 72 hours
  effect on bFGF-stimulated capillary EC proliferation: significantly inhibited capillary EC proliferation
[3]
  effect on neovascularization in the CAM: resulted in avascular zones at doses comparable to those tested for T2C
[4]; 3 μg/eye, versus contralateral control eyes
  suppression of bFGF-stimulated neovascularization: ~80%
Capillary EC [5]
  induction of apoptosis (apoptotic nuclei): not an inducer of apoptosis
Capillary EC [6]
  cells in G1: 45.6%
  cells in G2/M: 9.53%
Capillary EC [6]; IC50 dose
  number of cells in S-phase: did not change significantly
[7]
  level of p27: significantly increased
  levels of Cyclins D1, E or A: No significant differences
[8]
  proliferation of vascular smooth muscle cells: did not inhibit the proliferation of vascular smooth muscle cells
Capillary EC [9]
  competition with bFGF: not abrogated by increasing doses of bFGF

## T2-Tail: 19 amino acid peptide corresponding to the carboxy-terminal tail of TIMP-2, sequence AWYRGAAPPKQEFLDIEDP (SEQ ID NO: 3) [reference compound]
[2]; 1 ng/ml bFGF, 72 hours
  effect on bFGF-stimulated capillary EC proliferation: had no effect
[3]
  effect on neovascularization in the CAM: Neither Loop 5 nor the T2-Tail peptides had any significant effect on neovascularization
Capillary EC [6]
  cells in G1: 27.8%
  cells in G2/M: 34.6%

## VIRAK: control peptide of sequence VIRAK (SEQ ID NO: 4), conserved sequence in the N-terminal domain of all TIMPs [reference compound]
[2]; 1 ng/ml bFGF, 72 hours
  effect on bFGF-stimulated capillary EC proliferation: no inhibition of capillary EC proliferation

## Loop 5: 10 amino acid peptide corresponding to Loop 5 of TIMP-2, sequence TRCPMIPCYI (SEQ ID NO: 2) [reference compound]
[2]; 1 ng/ml bFGF, 72 hours
  effect on bFGF-stimulated capillary EC proliferation: stimulated the proliferation of capillary EC
[3]
  effect on neovascularization in the CAM: Neither Loop 5 nor the T2-Tail peptides had any significant effect on neovascularization

B1: T2C: recombinant His-tagged TIMP-2 domain composed of the three C-terminal disulfide-bonded loops (~8.5 kD), expressed in Pichia pastoris (protein)
chain: CKITRCPMIPCYISSPDECLWMDWVTEKNINGHQAKFFACIKRSDGSCAWYRGAAPPKQEFLDIEDP
modifications: disulfide (positions not given here); also: His tag, disulfide pairing not given here
notes: recombinant His-tagged TIMP-2 domain composed of the three C-terminal disulfide-bonded loops (~8.5 kD), expressed in Pichia pastoris
[1]
  inhibition of MMP activity: No significant inhibition of MMP activity
[2]
  cytotoxicity to capillary EC: no evidence of cytotoxicity
[2]; 1 ng/ml bFGF, 72 hours, read-out: IC50 of inhibition of capillary EC proliferation
  IC50: ~140 nM
[3]
  effect on neovascularization in the CAM: decrease in neovascularization
  lowest dose producing avascular zones: 112 pmol per egg
[4]; 5 μg/eye, versus contralateral control eye with only bFGF, six days
  reduction of bFGF-driven corneal neovascularization: 87%
